≈ marks a conversion by molar mass, not a printed value.
Conditions: buffer; pH 7.4; 200.0 µM

| Structure (SMILES) | solubility kinetic |
| --- | --- |
| N#C/C(=C(O)\C=C\c1ccccc1)c1nc2ccccc2[nH]1 | < 0.2 µg/mL |
| COc1ccc(CC(=O)Nc2cccnc2)cc1 | > 36.3 µg/mL |
| C=COCCCNc1ncnc2sc(-c3ccccc3)cc12 | 1.4 µg/mL (≈ 4.5 µM) |
| CCCCN(C(=O)Nc1ccccc1)C1CCS(=O)(=O)C1 (centres undefined) | > 46.6 µg/mL |
| Cc1ccc(C)c(SCC(=O)NC2CCS(=O)(=O)C2)c1 (centres undefined) | > 47 µg/mL |
| CC(=O)c1ccc(NC(=O)c2cc(-c3cccs3)on2)cc1 | < 0.3 µg/mL |
| Cc1ccc(CN2CCCC(CO)(Cc3ccccc3C)C2)s1 (centres undefined) | 48.6 µg/mL (≈ 147 µM) |
| CCS(=O)(=O)N1CCC(C(=O)Nc2cc(C)ccc2O)CC1 | > 49 µg/mL |
| CC(=O)NC(Cc1c[nH]c2ccccc12)C(=O)NCCc1ccccn1 (centres undefined) | > 52.6 µg/mL |
| Cc1ccc(NC(=O)C2C3CCC(O3)C2C(=O)O)cc1Cl (centres undefined) | 27.8 µg/mL (≈ 89.8 µM) |
| CC(NC(=O)c1ccco1)C(=O)N1CC=C(c2ccccc2)CC1 (centres undefined) | > 48.7 µg/mL |
| NS(=O)(=O)c1ccc(NC(=S)NC(=O)c2cccs2)cc1 | 6.2 µg/mL (≈ 18.2 µM) |
| COc1ccccc1N1CCN(CC(=O)c2c[nH]c3ccccc23)CC1 | 6.6 µg/mL (≈ 18.9 µM) |
| Cc1ccc(C(=O)NCCc2c[nH]c3ccccc23)c(C)c1 | 23 µg/mL (≈ 78.7 µM) |
| Cc1cccc(N2C(=O)c3ccccc3C2=O)n1 | > 35.7 µg/mL |
| CCC(NC(=S)NC1CCCCC1)c1ccc(C)cc1 (centres undefined) | 5.3 µg/mL (≈ 18.2 µM) |
| COc1ccc(C(=O)Nc2ccc3nc(C)c(C)nc3c2)cc1 | 5.3 µg/mL (≈ 17.2 µM) |
| CN1CCCN(C(=O)CSc2ccccc2)CC1 | 39.3 µg/mL (≈ 149 µM) |
| COc1ccc2c(C)nc(Nc3nc(-c4ccccc4)cc(=O)[nH]3)nc2c1 | < 0.2 µg/mL |
| O=C(O)CC1(CC(=O)Nc2cccc(C(=O)O)c2)CCCC1 | > 45.8 µg/mL |
| Cc1cc(NC(=O)CSCc2ccc([N+](=O)[O-])cc2)no1 | 24.6 µg/mL (≈ 80 µM) |
| O=C(O)c1cc([N+](=O)[O-])c(Sc2nc3ccccc3[nH]2)c([N+](=O)[O-])c1 | > 54 µg/mL |
| O=C(O)C1CCN(S(=O)(=O)c2ccc3c(c2)OCCCO3)CC1 | > 51.2 µg/mL |
| COCCC(=O)Nc1ccc2c(c1)CN(C(=O)CCOC)CC2 | > 48.1 µg/mL |

| Structure (SMILES) | solubility kinetic |
| --- | --- |
| Cc1cccc(Nc2cc(C)nc3ccccc23)c1.Cl | > 42.7 µg/mL |
| O=C(Cc1c[nH]c2ccccc12)NCc1ccccc1F | 42.3 µg/mL (≈ 150 µM) |
| O=C(O)c1ccc2c(=O)n3c(nc2c1)/C(=C/c1cccc(O)c1)CC3 | > 50.1 µg/mL |
| COc1ccc(NS(=O)(=O)c2ccc3c(c2)OCCO3)cc1OC | > 52.7 µg/mL |
| CC(=O)Oc1ccc2nc(-c3ccco3)oc(=O)c2c1 | 27.7 µg/mL (≈ 102 µM) |
| O=C(Nc1ccc(Oc2cccnc2)nc1)c1ccc(C(F)(F)F)cc1 | 10.3 µg/mL (≈ 28.7 µM) |
| Cc1ccc(NC(=S)NCCN2CCOCC2)cc1F | > 44.6 µg/mL |
| O=C(COC(=O)CCc1ccccc1)NCc1ccc2c(c1)OCO2 | > 51.2 µg/mL |
| COc1ccc(-c2cc(C(=O)NN3CCOCC3)c3ccccc3n2)cc1OC | > 59 µg/mL |
| Cc1nc2cc(NS(=O)(=O)c3ccccc3)ccc2n1C | 15.6 µg/mL (≈ 51.8 µM) |
| COc1cc(C(=S)N2CCOCC2)ccc1OC(=O)c1ccccc1C | 10.3 µg/mL (≈ 27.7 µM) |
| CCN(CC)c1cc(C)c2cc(NC(=O)c3ccccc3F)ccc2n1 | 10.7 µg/mL (≈ 30.4 µM) |
| CC(C)(C)C(=O)Nc1ccc(NC(=O)c2ccco2)nc1 | > 43.1 µg/mL |
| Cc1ccc(NC(=O)C2C3CCC(O3)C2C(=O)O)cc1C (centres undefined) | > 43.4 µg/mL |
| COc1ccc2c(c1)CC/C2=N\OC(=O)c1ccccc1C | < 0.6 µg/mL |
| CC(C)c1nc(SCC(=O)c2ccc(F)cc2)c2ccccc2n1 | 1.7 µg/mL (≈ 4.99 µM) |
| CCOc1ccc(NC(=O)C2C(c3ccccc3)C2(Cl)Cl)cc1 (centres undefined) | < 0.8 µg/mL |
| Cc1occc1C(=O)Nc1ccc(S(N)(=O)=O)cc1 | > 42 µg/mL |
| Cc1ccc2nc(SCC(=O)NCc3ccc(F)cc3)[nH]c2c1 | 22.4 µg/mL (≈ 68 µM) |
| Cc1ccc(OCc2cc(C(=O)N3CCCC3)no2)cn1 | > 43.1 µg/mL |
| Cc1ccc(C(=O)OCc2cc(=O)n3ccsc3n2)s1 | 6.8 µg/mL (≈ 22.2 µM) |
| CC1CCCN(C(=O)c2cc3ccccc3cc2O)C1 (centres undefined) | 38.5 µg/mL (≈ 143 µM) |
| Cc1ccc(C(=O)NCC(=O)Nc2ccc3c(c2)CCC3)cc1 | 3 µg/mL (≈ 9.73 µM) |
| COc1ccc(NC(=O)c2csc(C)c2)cc1OC | > 41.6 µg/mL |

| Structure (SMILES) | solubility kinetic |
| --- | --- |
| Cc1cnc(NC(=O)c2cccs2)s1 | 28.1 µg/mL (≈ 125 µM) |
| Cn1c(C(=O)N[C@@H](C(=O)O)c2ccccc2)cc2cc(F)ccc21 | 45.4 µg/mL (≈ 139 µM) |
| CCOC(=O)c1cc(C#N)c(=S)[nH]c1C | 33.1 µg/mL (≈ 149 µM) |
| CCc1ccc2nc(N3CCN(C(=O)C(C)(C)C)CC3)sc2c1 | 2 µg/mL (≈ 6.03 µM) |
| Cc1cc(NC(=O)CN(C)S(=O)(=O)c2cccc(Cl)c2)no1 | 10.5 µg/mL (≈ 30.5 µM) |
| CCNC(=O)C(=O)c1c(-c2ccccc2)[nH]c2ccccc12 | > 43.9 µg/mL |
| Cc1ccc(S(=O)(=O)N2CCN(C)CC2)c2nsnc12 | > 46.9 µg/mL |
| CC(=O)Nc1ccc(S(=O)(=O)N[C@@H](C)C(=O)OCC(=O)c2ccc[nH]2)cc1 | 42.2 µg/mL (≈ 107 µM) |
| O=C(CNC(=O)c1ccc(Br)o1)NCc1cccc(Cl)c1 | 55.5 µg/mL (≈ 149 µM) |
| CC(C)n1c(=S)[nH]c2cc(C(F)(F)F)ccc21 | 9.1 µg/mL (≈ 35 µM) |
| COc1ccc(NC(=O)c2cccc(Oc3ccccc3)c2)cn1 | 8.8 µg/mL (≈ 27.5 µM) |
| COc1ccccc1NC(=O)N1CCN(C)CC1 | 30.8 µg/mL (≈ 124 µM) |
| O=C1OCC2=C1C(c1ccc(F)cc1)CC(=O)N2c1ccccc1 (centres undefined) | > 48.5 µg/mL |
| O=C(CN1CCN(c2ccccc2)CC1)NCc1ccc(F)cc1 | > 49.1 µg/mL |
| COc1ccc(NC(=O)CS(=O)c2cccc(Cl)c2)cc1 (centres undefined) | > 48.6 µg/mL |
| CC(C)c1ccc(NC(=O)C2CC(=O)N(C3CCCC3)C2)cc1 (centres undefined) | 36.1 µg/mL (≈ 115 µM) |
| O=S(=O)(NC1=NCCC1)c1ccc(F)cc1F | > 39 µg/mL |
| CCNS(=O)(=O)c1ccc(CCC(=O)N2CCOCC2)cc1 | > 49 µg/mL |
| Cc1cc(F)ccc1NC(=S)NC1CCCC1 | 37.2 µg/mL (≈ 147 µM) |
| O=S(=O)(Nc1cccc(S(=O)(=O)N2CCCCCC2)c1)c1ccc(F)cc1F | > 64.6 µg/mL |
| O=C(NC1CC1)c1sc2ccccc2c1Cl | 1.6 µg/mL (≈ 6.36 µM) |
| Cc1ccc(NC(=O)[C@@H]2CCCN2S(=O)(=O)c2ccc(Cl)cc2)cc1 | 14 µg/mL (≈ 37 µM) |
| Cc1ccc(C(=O)Nc2cccc(NC(=O)c3ccc(C)o3)n2)o1 | 4 µg/mL (≈ 12.3 µM) |
| CC(NC(=O)c1cc(F)c(F)cc1Cl)C1CC2CCC1C2 (centres undefined) | 5.6 µg/mL (≈ 17.8 µM) |

| Structure (SMILES) | solubility kinetic |
| --- | --- |
| Cc1ccc(OCc2ccccc2Br)c([N+](=O)[O-])n1 | 1.7 µg/mL (≈ 5.26 µM) |
| N#Cc1ccccc1OCC(O)CS(=O)(=O)c1ccccc1 (centres undefined) | > 47.6 µg/mL |
| CC1CCN(C(=O)COC(=O)c2ccc3c(c2)OCCO3)CC1 | > 47.9 µg/mL |
| O=C(CN1CCN(C(=O)c2ccccc2)CC1)Nc1ccccc1 | > 48.5 µg/mL |
| CC(=O)N1CCN(C(=O)c2oc3ccccc3c2C)CC1 | > 42.9 µg/mL |
| O=C(O)C1CC=CCC1C(=O)NCCCCc1ccccc1 (centres undefined) | > 45.2 µg/mL |
| O/N=C1\CCCc2ccc3ccccc3c21 | 4.5 µg/mL (≈ 21.3 µM) |
| COc1ccc(CN2CCN(C(=O)CC(C)C)CC2)cc1 | 36.8 µg/mL (≈ 127 µM) |
| COc1ccc(C)cc1NC(=S)NC12CN3CN(CN(C3)C1)C2 | > 50 µg/mL |
| O=C(NCCCSc1ccccc1)c1ccc(=O)[nH]c1 | > 43.3 µg/mL |
| COc1ccc(-c2oc(=O)n(C)c2-c2ccc(OC)cc2)cc1 | 17.3 µg/mL (≈ 55.6 µM) |
| C/C(=N\OCc1ccccc1C#N)c1cc2ccccc2o1 | 1.1 µg/mL (≈ 3.79 µM) |
| CC(O/N=C(\N)c1ccccc1)C(=O)Nc1cccc(C(F)(F)F)c1 (centres undefined) | > 52.7 µg/mL |
| CCCCOC(=O)N1CCOCCOCCOCCOCC1 | > 47.9 µg/mL |
| CCOc1ccc(C(=O)CCN2CCOCC2)cc1.Cl | 44.9 µg/mL |
| CC(=O)Nc1ccc(SC(C)C(=O)NC2CCCC2)cc1 (centres undefined) | > 46 µg/mL |
| Cc1cc(C)c(C)c(S(=O)(=O)Nc2cccc(S(=O)(=O)Nc3ccccc3C(=O)O)c2)c1C | 72.1 µg/mL (≈ 148 µM) |
| O=C(c1ccccc1[N+](=O)[O-])N1CCC2(CC1)OCCO2 | > 43.8 µg/mL |
| Cc1ccc(N(Cc2cc(=O)[nH]c3ccccc23)C(=O)C(C)C)cc1 | 47.5 µg/mL (≈ 142 µM) |
| COC(=O)c1sccc1S(=O)(=O)Nc1ccc(Cl)cc1 | 13 µg/mL (≈ 39.2 µM) |
| Cc1ccccc1Nc1c(C)c(C)nc2ncnn12 | > 38 µg/mL |
| COc1ccc(NC(=S)NCc2cccs2)cc1OC | 19.6 µg/mL (≈ 63.5 µM) |
| CC1CCN(C(=O)c2ccccc2NC(=O)c2cccs2)CC1 | > 49.3 µg/mL |
| O=C(CNC(=O)c1ccc(Br)o1)NCc1ccc(F)cc1 | > 53.3 µg/mL |

| Structure (SMILES) | solubility kinetic |
| --- | --- |
| CCCN(CC(=O)Nc1ccc(Cl)cc1Cl)C(=O)c1ccc(=O)[nH]c1 | > 57.3 µg/mL |
| COC(=O)/C(C#N)=C/N(C)C | > 23.1 µg/mL |
| CC(C)C12CN3CC(C(C)C)(CN(C1)C3(C)C)C2=O | 32 µg/mL (≈ 121 µM) |
| CC(C)NCC#CCOc1ccc(Cl)cc1.O=C(O)C(=O)O | 42.6 µg/mL |
| O=C(Cc1ccc(Cl)cc1)Nc1cc(Cl)ccn1 | 3.5 µg/mL (≈ 12.4 µM) |
| COCC(C)n1c(C)cc(C(=O)COC(=O)c2cnc(Cl)c(Cl)c2)c1C (centres undefined) | 34 µg/mL (≈ 85.2 µM) |
| CS(=O)(=O)N(CC(=O)NCc1cccnc1)C1CCCCC1 | > 48.8 µg/mL |
| COc1ccc(NC(=O)Cn2c(C)csc2=O)c(OC)c1 | > 46.3 µg/mL |
| CC(=O)c1c(C)[nH]c(-c2ccccc2)nc1=S | 33.2 µg/mL (≈ 136 µM) |
| COc1cccc(C(C)NC(=O)c2ccncc2)c1 (centres undefined) | > 38.4 µg/mL |
| CCn1cc(CCC(=O)NC2CCCC2)c2ccccc21 | 40.4 µg/mL (≈ 142 µM) |
| CN1CCC(OC(=O)c2ccco2)CC1.Cl | > 36.9 µg/mL |
| Cc1nnc(SC(C)C(=O)Nc2ccc(Cl)cc2Cl)[nH]c1=O (centres undefined) | > 53.9 µg/mL |
| Cc1cccc(NCc2ccc(O)c3ncccc23)c1C | > 41.8 µg/mL |
| COc1ccccc1NC(=O)c1cc([N+](=O)[O-])ccc1N1CCOCC1 | 31.2 µg/mL (≈ 87.3 µM) |
| Cc1ccc2c(COC(=O)C3CC(=O)N(c4ccc5c(c4)OCCO5)C3)cc(=O)oc2c1 (centres undefined) | 19.6 µg/mL (≈ 45 µM) |
| Cc1ccc(C(=O)N2CCC(C(=O)NC3CCCC3)CC2)cc1 | 44 µg/mL (≈ 140 µM) |
| O=S(=O)(Nc1ncccn1)c1ccc(F)cc1 | > 38 µg/mL |
| Cc1cc(C)c2c(N)c(C(=O)c3ccc(Br)cc3)oc2n1 | 1.2 µg/mL (≈ 3.48 µM) |
| CCOC(=O)CN1C(=O)C(=O)N(Cc2c(C)cc(C)cc2C)C1=O | 14 µg/mL (≈ 42.1 µM) |
| O=C(NC(=S)N1CCN(c2ccc(O)cc2)CC1)c1cccs1 | 41.7 µg/mL (≈ 120 µM) |
| CCN1CCN(c2ncnc3scc(-c4ccc(C)c(C)c4)c23)CC1 | > 52.9 µg/mL |
| COCC(C)NC(=O)C1c2ccccc2Oc2ccccc21 (centres undefined) | 40.1 µg/mL (≈ 135 µM) |
